Experimental data published in US8846739B2, “TGR5 agonists” (Exelixis Patent Company LLC, priority 2009, dated 2014).

How the values were obtained:
[1] = molecular target: T1, h-TGR5 (Homo sapiens, UniProt Q8TDU6); assay: TGR5 cAMP Assay using Cisbio cAMP Dynamic 2 htrf assay kit; type: cell-based; conditions: hTGR5CRE-luc HEK 293 cells
T1 sequence (Q8TDU6 1-330): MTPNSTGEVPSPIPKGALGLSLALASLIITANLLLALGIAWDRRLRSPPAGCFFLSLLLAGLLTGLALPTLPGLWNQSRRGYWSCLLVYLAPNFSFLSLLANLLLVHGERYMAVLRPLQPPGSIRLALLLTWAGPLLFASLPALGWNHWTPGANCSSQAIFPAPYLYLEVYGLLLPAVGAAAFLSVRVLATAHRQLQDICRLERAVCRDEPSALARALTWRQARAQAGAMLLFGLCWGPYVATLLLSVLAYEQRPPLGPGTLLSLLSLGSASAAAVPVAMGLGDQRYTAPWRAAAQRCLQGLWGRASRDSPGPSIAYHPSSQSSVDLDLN

[2] = molecular target: T2, human TGR5 (h-TGR5) (Homo sapiens, UniProt Q8TDU6); assay: TGR5/CRE-Luciferase Assay; type: cell-based; conditions: HEK 293 hTGR5/CRE-Luc cells, 6 hours incubation, read-out: CRE-Luc Agonist (EC50)
T2 sequence (Q8TDU6 1-330): T1 sequence (Q8TDU6 1-330)
Method in brief: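 HEK 293 CRE-Luciferase cells stably expressing the receptor, plated in DMEM 18-20 h before assay, then exposed to serially diluted compounds (DMEM with 5% DMSO) for 6 h. Luciferase read-out after lysis; EC50 from dose-response.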

SMILES | EC50 [1] [nM] | EC50 [2] [nM]
COc1cc(C(C)(C)c2cnc(SCc3c(F)cc(S(=O)(=O)N(C)[C@H](CCCC[N+](C)(C)C)C(=O)O)cc3Cl)n2-c2ccc(F)cc2)ccc1Cl [Compound 17j, (R)-5-carboxy-5-(3-chloro-4-((5-(2-(4-chloro-3-methoxyphenyl)propan-2-yl)-1-(4-fluorophenyl)-1H-imidazol-2-ylthio)methyl)-5-fluoro-N-methylphenylsulfonamido)-N,N,N-trimethylpentan-1-aminium 2,2,2-trifluoroacetate] | < 100 | < 100
COc1cc(-n2c(C(C)(C)c3ccc4onc(N)c4c3)cnc2SCc2c(F)cc(C(=O)N[C@H]3CC[N+](C)(C)C3)cc2F)ccc1F [Example 2k, (3S)-3-[({4-[({5-[1-(3-amino-1,2-benzisoxazol-5-yl)-1-methylethyl]-1-[4-fluoro-3-(methyloxy)phenyl]-1H-imidazol-2-yl}thio)methyl]-3,5-difluorophenyl}carbonyl)amino]-1,1-dimethylpyrrolidinium] | < 100 | < 100
COc1cc(C(C)(C)c2cnc(SCc3c(F)cc(S(=O)(=O)N(C)[C@@H](CCC[N+](C)(C)C)C(=O)[O-])cc3F)n2-c2ccc(F)cc2)ccc1Cl [Compound 17] | < 100 | < 100
COc1cc(C(C)(C)c2cnc(SCc3c(F)cc(C(=O)N[C@@H]4CC[N+](C)(C)C4)cc3Cl)n2-c2ccc(F)cc2)ccc1Cl [Example 2h, (3R)-3-({[3-chloro-4-({[5-{1-[4-chloro-3-(methyloxy)phenyl]-1-methylethyl}-1-(4-fluorophenyl)-1H-imidazol-2-yl]thio}methyl)-5-fluorophenyl]carbonyl}amino)-1,1-dimethylpyrrolidinium] | < 100 | < 100
COc1cc(C(C)(C)c2cnc(SCc3c(F)cc(S(=O)(=O)N(CCC[N+](C)(C)C)[C@@H](CO)C(=O)O)cc3F)n2-c2ccc(F)cc2)ccc1Cl [Compound 14t, 3-([(1S)-1-carboxy-2-hydroxyethyl]{[4-({[5-{1-[4-chloro-3-(methyloxy)phenyl]-1-methylethyl}-1-(4-fluorophenyl)-1H-imidazol-2-yl]thio}methyl)-3,5-difluorophenyl]sulfonyl}amino)-N,N,N-trimethylpropan-1-aminium] | < 100 | < 100
COc1cc(C(C)(C)c2cnc(SCc3c(F)cc(S(=O)(=O)N(CCC[N+](C)(C)C)[C@@H](C)C(=O)O)cc3Cl)n2-c2ccc(F)cc2)ccc1Cl [Compound 14x, 3-([(1S)-1-carboxyethyl]{[3-chloro-4-({[5-{1-[4-chloro-3-(methyloxy)phenyl]-1-methylethyl}-1-(4-fluorophenyl)-1H-imidazol-2-yl]thio}methyl)-5-fluorophenyl]sulfonyl}amino)-N,N,N-trimethylpropan-1-aminium] | < 100 | < 100
CC[C@H](C(=O)O)N(CCC[N+](C)(C)C)S(=O)(=O)c1cc(F)c(CSc2ncc(C(C)(C)c3ccc(Cl)c(OC)c3)n2-c2ccc(F)cc2)c(Cl)c1 [Compound 14ab, 3-([(1R)-1-carboxypropyl]{[3-chloro-4-({[5-{1-[4-chloro-3-(methyloxy)phenyl]-1-methylethyl}-1-(4-fluorophenyl)-1H-imidazol-2-yl]thio}methyl)-5-fluorophenyl]sulfonyl}amino)-N,N,N-trimethylpropan-1-aminium] | < 100 | < 100
COc1cc(C(C)(C)c2cnc(SCc3c(F)cc(C(=O)NCC[N+](C)(C)CCCS(=O)(=O)[O-])cc3Cl)n2-c2ccc(F)cc2)ccc1Cl [Example 4, 3-((2-(3-Chloro-4-((5-(2-(4-chloro-3-methoxyphenyl)propan-2-yl)-1-(4-fluorophenyl)-1H-imidazol-2-ylthio)methyl)-5-fluorobenzamido)ethyl)dimethylammonio)-propane-1-sulfonate] | < 100 | < 100
COc1cc(C(C)(C)c2cnc(SCc3c(F)cc(S(=O)(=O)N(C)[C@@H](CCCCC[N+](C)(C)C)C(=O)O)cc3Cl)n2-c2ccc(F)cc2)ccc1Cl [Compound 17l, (S)-6-carboxy-6-(3-chloro-4-((5-(2-(4-chloro-3-methoxyphenyl)propan-2-yl)-1-(4-fluorophenyl)-1H-imidazol-2-ylthio)methyl)-5-fluoro-N-methylphenylsulfonamido)-N,N,N-trimethylhexan-1-aminium 2,2,2-trifluoroacetate] | < 100 | < 100
COc1cc(C(C)(C)c2cnc(SCc3c(F)cc(S(=O)(=O)N(CCCC[N+](C)(C)C)CC(=O)O)cc3F)n2-c2ccc(F)cc2)ccc1Cl [Compound 14o, 4-[(carboxymethyl){[4-({[5-{1-[4-chloro-3-(methyloxy)phenyl]-1-methylethyl}-1-(4-fluorophenyl)-1H-imidazol-2-yl]thio}methyl)-3,5-difluorophenyl]sulfonyl}amino]-N,N,N-trimethylbutan-1-aminium] | < 100 | < 100
COc1cc(C(C)(C)c2cnc(SCc3c(F)cc(S(=O)(=O)N(C)CCC[N+](C)(C)C)cc3Cl)n2-c2ccc(F)cc2)ccc1Cl [Compound 12c, 3-(3-chloro-4-((5-(2-(4-chloro-3-methoxyphenyl)propan-2-yl)-1-(4-fluorophenyl)-1H-imidazol-2-ylthio)methyl)-5-fluoro-N-methylphenylsulfonamido)-N,N,N-trimethylpropan-1-aminium 2,2,2-trifluoroacetate] | < 100 | < 100
COc1cc(C(C)(C)c2cnc(SCc3c(F)cc(CCC[N+](C)(C)C)cc3F)n2-c2ccc(F)cc2)ccc1Cl [Compound 19a, 3-(4-((5-(2-(4-chloro-3-methoxyphenyl)propan-2-yl)-1-(4-fluorophenyl)-1H-imidazol-2-ylthio)methyl)-3,5-difluorophenyl)-N,N,N-trimethylpropan-1-aminium 2,2,2-trifluoroacetate] | < 100 | < 100
COc1cc(C(C)(C)c2cnc(SCc3c(F)cc(S(=O)(=O)N(CCCC[N+](C)(C)C)[C@H](C)C(=O)O)cc3Cl)n2-c2ccc(F)cc2)ccc1Cl [Compound 14aa, 4-([(1R)-1-carboxyethyl]{[3-chloro-4-({[5-{1-[4-chloro-3-(methyloxy)phenyl]-1-methylethyl}-1-(4-fluorophenyl)-1H-imidazol-2-yl]thio}methyl)-5-fluorophenyl]sulfonyl}amino)-N,N,N-trimethylbutan-1-aminium] | < 100 | < 100
COc1cc(C(C)(C)c2cnc(SCc3c(F)cc(S(=O)(=O)N(CCC[N+](C)(C)C)[C@H](C)CC(=O)O)cc3Cl)n2-c2ccc(F)cc2)ccc1Cl [Compound 14aj, (R)-3-(N-(1-carboxypropan-2-yl)-3-chloro-4-((5-(2-(4-chloro-3-methoxyphenyl)-propan-2-yl)-1-(4-fluorophenyl)-1H-imidazol-2-ythio)methyl)-5-fluorophenyl-sulfonamido)-N,N,N-trimethylpropan-1-aminium 2,2,2-trifluoroacetate] | < 100 | < 100
COc1cc(C(C)(C)c2cnc(SCc3c(F)cc(S(=O)(=O)NCCC[n+]4ccccc4)cc3Cl)n2-c2ccc(F)cc2)ccc1F [Example 9, 1-(3-(3-chloro-5-fluoro-4-((5-(2-(4-fluoro-3-methoxyphenyl)propan-2-yl)-1-(4-fluorophenyl)-1H-imidazol-2-ylthio)methyl)phenylsulfonamido)propyl)pyridinium methanesulfonate] | < 100 | < 100
COc1cc(C(C)(C)c2cnc(SCc3c(F)cc(S(=O)(=O)N[C@H]4CCC[N+](C)(C)C4)cc3F)n2-c2ccc(F)cc2)ccc1Cl [Compound 11e, (3S)-3-({[4-({[5-{1-[4-chloro-3-(methyloxy)phenyl]-1-methylethyl}-1-(4-fluorophenyl)-1H-imidazol-2-yl]thio}methyl)-3,5-difluorophenyl]sulfonyl}amino)-1,1-dimethylpiperidinium] | < 100 | < 100
COc1cc(C(C)(C)c2cnc(SCc3c(F)cc(S(=O)(=O)Nc4cccc[n+]4C)cc3Cl)n2-c2ccc(F)cc2)ccc1F [Compound 11t, 2-({[3-chloro-5-fluoro-4-({[5-{1-[4-fluoro-3-(methyloxy)phenyl]-1-methylethyl}-1-(4-fluorophenyl)-1H-imidazol-2-yl]thio}methyl)phenyl]sulfonyl}amino)-1-methylpyridinium] | < 100 | < 100
CC[N+](CC)(CC)CCCNS(=O)(=O)c1cc(F)c(CSc2ncc(C(C)(C)c3ccc(Cl)c(OC)c3)n2-c2ccc(F)cc2)c(F)c1 [Example 6m, 3-({[4-({[5-{1-[4-chloro-3-(methyloxy)phenyl]-1-methylethyl}-1-(4-fluorophenyl)-1H-imidazol-2-yl]thio}methyl)-3,5-difluorophenyl]sulfonyl}amino)-N,N,N-triethylpropan-1-aminium] | < 100 | < 100
COc1cc(C(C)(C)c2cnc(SCc3c(F)cc(CCC[N+](C)(C)C)cc3Cl)n2-c2ccc(F)cc2)ccc1Cl [Compound 19d, 3-(3-chloro-4-((5-(2-(4-chloro-3-methoxyphenyl)propan-2-yl)-1-(4-fluorophenyl)-1H-imidazol-2-ylthio)methyl)-5-fluorophenyl)-N,N,N-trimethylpropan-1-aminium 2,2,2-trifluoroacetate] | < 100 | < 100
